Read-outs that look alike come from different tables or passages of the source.
Experiments:
[1] = molecular target: T1, HCV NS5B polymerase 1a-H77 (Hepatitis C virus genotype 1a, UniProt P27958); test: biochemical; design: species or system HCV genotype 1a; settings: enzyme, strain 1a H77; read-out: HCV Polymerase Strain 1a H77 IC50
T1 construct: six-histidine tag; made in house; host or cells: E. coli
Method in brief: (§1)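 E. coli-expressed NS5B (residues 1-570, His-tagged) transcribed a 2.1 kb HCV 1b negative-strand 3′-end RNA template (5 nM) with 20 μM CTP, 20 μM ATP and 0.284 μM [3H]UTP for 3 h at 30° C. Spermine-precipitated RNA was filter-captured and counted by scintillation; IC50 from nonlinear regression.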

[2] = molecular target: T2, HCV NS5B polymerase 1a-H77-C316Y (Hepatitis C virus genotype 1a, UniProt P27958, C2736Y); test: biochemical; design: species or system HCV genotype 1a
T2 construct: six-histidine tag; made in house; host or cells: E. coli
Method in brief: as §1

[3] = test system: HCV NS5B polymerase 1a-H77-C316Y; test: biochemical; design: species or system HCV genotype 1a; settings: ratio of enzyme IC50s, 1a H77-C316Y / 1a H77
Method in brief: as §1

[4] = molecular target: T3, HCV NS5B polymerase 1b BK strain (Hepatitis C virus genotype 1b, UniProt P26663); test: HCV NS5B polymerase enzymatic inhibition assay, strain 1b BK; type: biochemical; settings: enzyme, strain 1b BK; read-out: HCV Polymerase Strain 1b BK IC50
T3 construct: six-histidine tag; made in house; host or cells: E. coli
Method in brief: as §1

[5] = test system: HCV 1a-H77 subgenomic replicon; test: microbe, parasite or virus in culture; type: cell-based, HCV genotype 1a; settings: Hepatitis C virus, stable replicon
[6] = test system: HCV 1b-BB7 subgenomic replicon; test: microbe, parasite or virus in culture; type: cell-based, HCV genotype 1b; settings: Hepatitis C virus, stable replicon
[7] = test system: chimeric replicon with 2a-J6CF-derived NS5B; test: microbe, parasite or virus in culture; type: cell-based, HCV genotype 2a; settings: Hepatitis C virus, read-out: 2a chimera 5% FBS EC50
[8] = test system: chimeric replicon with genotype 2b NS5B; test: microbe, parasite or virus in culture; type: cell-based, HCV genotype 2b; settings: Hepatitis C virus, read-out: 2b chimera 5% FBS EC50
[9] = test system: chimeric replicon with genotype 3a NS5B; test: microbe, parasite or virus in culture; type: cell-based, HCV genotype 3a; settings: Hepatitis C virus, read-out: 3a chimera 5% FBS EC50
[10] = test system: chimeric replicon with genotype 4a NS5B; test: microbe, parasite or virus in culture; type: cell-based, HCV genotype 4a; settings: Hepatitis C virus, read-out: 4a chimera 5% FBS EC50
[11] = test system: HCV 1a-H77 transient subgenomic replicon in Huh-7 derived cell line; test: microbe, parasite or virus in culture; type: cell-based, HCV genotype 1a; settings: Hepatitis C virus, Huh-7; transient replicon, 5% FBS; read-out: Transient Replicon 1a H77 5% FBS EC50
Method in brief: (§2)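 Transient format: T7-transcribed replicon RNA lacking Neo, electroporated into Huh-7-derived cells (5×10^3/well), input RNA checked by luciferase at 4 h. Three-fold compound dilution series, 0.5% DMSO, 4 days at 37° C; EC50 from luciferase signal in lysed cells.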

[12] = test system: HCV 1a-H77-C316Y transient subgenomic replicon in Huh-7 derived cell line; test: microbe, parasite or virus in culture; type: cell-based, HCV genotype 1a; settings: for EC50: Hepatitis C virus, Huh-7, read-out: Transient Replicon 1a H77-C316Y 5% FBS EC50; for Transient Replicon Fold Resistance C316Y/1a: ratio of transient replicon EC50s, C316Y / 1a H77
Method in brief: as §2

[13] = 5% FBS, absence of human plasma, read-out: Stable Replicon 1a H77 5% FBS EC50
[14] = strain 1a H77, 5% FBS + 40% human plasma, read-out: 1a H77 5% FBS + 40% Human Plasma EC50
[15] = strain 1a H77, 5% FBS, no human plasma, read-out: 1a H77 5% FBS EC50
[16] = strain 1a H77, 5% FBS, read-out: 1a H77 5% FBS EC50
[17] = strain 1b BB7, 5% FBS + 40% human plasma, read-out: 1b BB7 5% FBS + 40% Human Plasma EC50
[18] = strain 1b BB7, 5% FBS, no human plasma, read-out: 1b BB7 5% FBS EC50
[19] = strain 1b BB7, 5% FBS, read-out: 1b BB7 5% FBS EC50

T3 sequence (P26663 2420-2989): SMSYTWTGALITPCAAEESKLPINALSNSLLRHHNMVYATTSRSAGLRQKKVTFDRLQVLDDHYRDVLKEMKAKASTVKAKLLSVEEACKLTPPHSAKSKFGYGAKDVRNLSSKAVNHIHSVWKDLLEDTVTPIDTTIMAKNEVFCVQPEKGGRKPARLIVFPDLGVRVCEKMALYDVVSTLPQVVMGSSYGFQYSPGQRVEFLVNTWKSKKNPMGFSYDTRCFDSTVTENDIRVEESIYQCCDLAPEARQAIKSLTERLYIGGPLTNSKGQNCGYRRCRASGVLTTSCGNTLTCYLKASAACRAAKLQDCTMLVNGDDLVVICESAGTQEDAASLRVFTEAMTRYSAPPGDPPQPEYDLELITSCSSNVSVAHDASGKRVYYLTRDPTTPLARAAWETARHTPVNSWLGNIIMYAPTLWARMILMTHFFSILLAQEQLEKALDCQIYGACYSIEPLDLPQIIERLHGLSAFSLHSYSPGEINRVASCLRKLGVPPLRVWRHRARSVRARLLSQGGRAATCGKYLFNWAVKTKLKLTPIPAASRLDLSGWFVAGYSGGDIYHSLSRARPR
T1 sequence (P27958 2421-2990): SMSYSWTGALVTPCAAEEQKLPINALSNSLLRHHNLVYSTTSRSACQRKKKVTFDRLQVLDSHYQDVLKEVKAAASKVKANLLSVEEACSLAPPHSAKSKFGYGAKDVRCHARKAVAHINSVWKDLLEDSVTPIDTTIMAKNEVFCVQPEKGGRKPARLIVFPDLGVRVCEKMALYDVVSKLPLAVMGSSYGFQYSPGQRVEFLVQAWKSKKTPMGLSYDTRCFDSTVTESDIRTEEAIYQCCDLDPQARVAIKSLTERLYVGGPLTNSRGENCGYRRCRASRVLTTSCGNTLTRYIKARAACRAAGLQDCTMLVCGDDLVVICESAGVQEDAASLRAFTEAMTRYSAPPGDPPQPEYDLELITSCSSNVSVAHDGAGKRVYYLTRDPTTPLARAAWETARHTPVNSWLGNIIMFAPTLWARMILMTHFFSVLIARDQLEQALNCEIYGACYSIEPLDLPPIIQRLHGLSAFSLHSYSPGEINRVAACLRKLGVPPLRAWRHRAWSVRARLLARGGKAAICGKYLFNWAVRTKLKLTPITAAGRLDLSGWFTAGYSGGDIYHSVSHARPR
T2 sequence (P27958 2421-2990 C2736Y): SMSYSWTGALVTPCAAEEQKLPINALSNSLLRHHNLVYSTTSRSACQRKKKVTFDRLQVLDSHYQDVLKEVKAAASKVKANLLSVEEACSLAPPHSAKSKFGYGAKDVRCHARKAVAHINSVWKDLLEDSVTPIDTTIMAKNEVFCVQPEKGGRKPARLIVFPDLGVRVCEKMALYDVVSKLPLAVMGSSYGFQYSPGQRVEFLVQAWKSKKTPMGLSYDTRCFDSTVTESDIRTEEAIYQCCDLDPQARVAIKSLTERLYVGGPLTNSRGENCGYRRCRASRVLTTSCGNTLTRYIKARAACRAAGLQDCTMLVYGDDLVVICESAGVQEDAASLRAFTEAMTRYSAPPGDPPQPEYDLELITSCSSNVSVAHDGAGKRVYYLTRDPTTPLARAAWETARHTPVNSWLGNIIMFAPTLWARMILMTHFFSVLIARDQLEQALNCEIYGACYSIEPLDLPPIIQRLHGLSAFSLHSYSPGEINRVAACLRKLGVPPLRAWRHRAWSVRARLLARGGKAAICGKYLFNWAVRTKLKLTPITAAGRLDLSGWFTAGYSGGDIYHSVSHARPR

Structure (SMILES) | IC50 [1] [nM] | IC50 [2] [nM] | C316Y/1a Fold Resistance [3] [fold] | IC50 [4] [nM] | EC50 [5, 13] [nM] | EC50 [5, 14] [nM] | EC50 [5, 15] [nM] | EC50 [5, 16] [nM] | EC50 [6, 17] [nM] | EC50 [6, 18] [nM] | EC50 [6, 19] [nM] | EC50 [7] [nM] | EC50 [8] [nM] | EC50 [9] [nM] | EC50 [10] [nM] | EC50 [11] [nM] | EC50 [12] [nM] | Transient Replicon Fold Resistance C316Y/1a [12] [fold]
CCOC(=O)CCCN(c1cc2oc(-c3ccc(F)cc3)c(C3=NOCCN3)c2cc1C1CC1)S(C)(=O)=O [Example 121, ethyl 4-{[5-cyclopropyl-3-(5,6-dihydro-4H-1,2,4-oxadiazin-3-yl)-2-(4-fluorophenyl)-1-benzofuran-6-yl](methylsulfonyl)amino}butanoate] | 3.5 | 40 | 12 | 55 | 38.7 | 311 | 38.7 | 38.7 | 388 | 68 | 68 | 1000 | 1000 | 121 | 988 | 28 | 287 | 10
CS(=O)(=O)CCCCN(c1cc2oc(-c3ccc(F)cc3)c(C3=NOCCN3)c2cc1C1CC1)S(C)(=O)=O [Example 122, N-[5-cyclopropyl-3-(5,6-dihydro-4H-1,2,4-oxadiazin-3-yl)-2-(4-fluorophenyl)-1-benzofuran-6-yl]-N-[4-(methylsulfonyl)butyl]methanesulfonamide] | 6.9 | 46 | 7 | 25 | 8.4 | 50 | 8.4 | 8.4 | 81 | 11 | 11 | 130 | 127 | 32 | 83.9 | 6.7 | 62.3 | 9
CS(=O)(=O)N(CCC1CCS(=O)(=O)C1)c1cc2oc(-c3ccc(F)cc3)c(C3=NOCCN3)c2cc1C1CC1 (stereo not drawn) [Example 123] | 9.5 | 76 | 8 | 14 | 10.9 | 108 | 10.9 | 10.9 | 211 | 18 | 18 | 162 | 105 | 36.4 | 58.1 | 10.7 | 78.9 | 7
CS(=O)(=O)N(CCCS(N)(=O)=O)c1cc2oc(-c3ccc(F)cc3)c(C3=NOCCN3)c2cc1C1CC1 [Example 124, 3-{[5-cyclopropyl-3-(5,6-dihydro-4H-1,2,4-oxadiazin-3-yl)-2-(4-fluorophenyl)-1-benzofuran-6-yl](methylsulfonyl)amino}propane-1-sulfonamide] | 4.5 | 37 | 8 | 29 | 44.3 | 501 | 44.3 | 44.3 | 984 | 44 | 44 | 1000 | 1000 | 139 | 962 | 33.4 | 276 | 8
CS(=O)(=O)N(CCCN1CCOCC1)c1cc2oc(-c3ccc(F)cc3)c(C3=NOCCN3)c2cc1C1CC1 [Example 126, N-[5-cyclopropyl-3-(5,6-dihydro-4H-1,2,4-oxadiazin-3-yl)-2-(4-fluorophenyl)-1-benzofuran-6-yl]-N-[3-(morpholin-4-yl)propyl]methanesulfonamide] | 21.5 | 91 | 4 | 111 | 25.3 | 258 | 25.3 | 25.3 | 379 | 30 | 30 | 350 | 453 | 70 | 360 | 33.6 | 260 | 8
CS(=O)(=O)N(CCCO)c1cc2oc(-c3ccc(F)cc3)c(C3=NOCCN3)c2cc1C1CC1 [Example 137, N-[5-cyclopropyl-3-(5,6-dihydro-4H-1,2,4-oxadiazin-3-yl)-2-(4-fluorophenyl)-1-benzofuran-6-yl]-N-(3-hydroxypropyl)methanesulfonamide] | 4.2 | 39 | 9 | 79 | 15 | 59 | 15 | 15 | 113 | 17 | 17 | 182 | 214 | 33 | 172 | 10.1 | 107 | 11
COc1ccc(CN(c2cc3oc(-c4ccc(F)cc4)c(C4=NOCN4)c3cc2C2CC2)S(C)(=O)=O)cc1 [Example 145, N-[5-cyclopropyl-3-(4,5-dihydro-1,2,4-oxadiazol-3-yl)-2-(4-fluorophenyl)-1-benzofuran-6-yl]-N-(4-methoxybenzyl)methanesulfonamide] | 6 | 2000 | 333 | 35 | 134 | 1000 | 134 | 134 | 1000 | 80 | 80 | 372 | 836 | 163 | > 1000 | 100 | 1000 | 10
CC(C)(O)C(O)CCN(c1cc2oc(-c3ccc(F)cc3)c(C3=NOCN3)c2cc1C1CC1)S(C)(=O)=O (stereo not drawn) [Example 146, N-[5-cyclopropyl-3-(4,5-dihydro-1,2,4-oxadiazol-3-yl)-2-(4-fluorophenyl)-1-benzofuran-6-yl]-N-(3,4-dihydroxy-4-methylpentyl)methanesulfonamide] | 4.9 | 45 | 9 | 25 | 12.6 | 1660 | 12.6 | 12.6 | 2710 | 17.9 | 17.9 | 179 | 169 | 17 | 277 | 11.2 | 237 | 21
CS(=O)(=O)N(CCCCCO)c1cc2oc(-c3ccc(F)cc3)c(C3=NOCN3)c2cc1C1CC1 [Example 147, N-[5-cyclopropyl-3-(4,5-dihydro-1,2,4-oxadiazol-3-yl)-2-(4-fluorophenyl)-1-benzofuran-6-yl]-N-(5-hydroxypentyl)methanesulfonamide] | 3.5 | 49 | 14 | 9 | 8.9 | 1710 | 8.9 | 8.9 | 1830 | 9.8 | 9.8 | 84.8 | 62 | 10.3 | 65.9 | 9.7 | 77.8 | 8
